Ten molecules from PubChem BioAssay (NCI) can be followed below.

Holding throughout (assay): NCI tumour cell line growth inhibition, 48 h
In assay [1] the test system is UACC-62 melanoma.
The test system of assay [2] is OVCAR-3 ovarian.
Assay [3] relates to OVCAR-8 ovarian.
Assay [4] has as its system SW-620 colon.
Assay [5] has as its system SR leukemia.
Assay [6] relates to 786-0 renal.
Assay [7] relates to HCC-2998 colon.
The test system of assay [8] is NCI-H23 lung.
Assay [9] concerns SF-539 CNS.
In assay [10] the test system is K-562 leukemia.

Several values for one entry are separate records, joined by “and”; a condition that tells them apart may be missing. Equal values may be shown once.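 Following 48 hours of exposure in 96-well plates, responses at five concentrations were used to interpolate endpoints linearly. GI50 is the concentration that inhibits growth by half. At the TGI there is no net growth.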

Turning to `CCCN(CCCN)/[N+]([O-])=N\O`, the TGI is 0.831 µM in assay [1]; over 100 µM in [2]; over 100 µM in assay [3]; over 100 µM in assay [4]; over 100 µM in assay [5]; over 100 µM in assay [6]. Further, the TGI in assay [7], in [8], in [9] and in [10] was over 100 µM throughout.

Take `COC(=O)[C@H]1[C@H]2C[C@@H]3c4[nH]c5cc(OC)ccc5c4CCN3C[C@H]2C[C@@H](OC(=O)c2cc(OC)c(OC)c(OC)c2)[C@@H]1OC`: the TGI in assay [1] was 36.9 µM; in assay [2], 32.9 µM; in [3], 49.6 µM; in [4], over 100 µM; in assay [5], 34 µM; in [6] it was 27.7 µM. Also, the TGI in assay [7] was 47.1 µM; in assay [8] it was 41.7 µM; in [9], 23.8 µM; in assay [10], 29.3 µM.

`CC1(C)OC(=O)[C@@](C)([C@H](O)c2ccccc2)O1`: the TGI in [1], in assay [2], in [3], in assay [4], in assay [5] and in [6] was over 100 µM each time. Moreover, the TGI in [7], in [8], in [9] and in assay [10] was over 100 µM each time.

Consider `N=Nc1c(OC(=O)Nc2ccccc2)[nH]c2ccccc12`, for which the TGI is 35.5 µM in assay [1]; 26.7 µM in assay [2]; 33.9 µM in [3]; over 100 µM in assay [4]; over 100 µM in [5]; 32.6 µM in [6]. Moreover, the TGI is 29.7 µM in assay [7], 33.2 µM in assay [8], 37.4 µM in [9] and over 100 µM in [10].

Consider `NC(=O)c1cc(-c2ccncc2)cc(-c2ccccc2)c1N`, for which the GI50 in assay [1] is over 24.1 µM; in assay [2], 20.5 µM; in assay [3] it was 15.1 µM; in assay [4], over 25 µM; in assay [5], 13.5 µM; in [6], 15.9 µM. Further, the GI50 is over 25 µM in [7], over 25 µM in [8], 10.8 µM in assay [9] and over 20.1 µM in assay [10]. For the same molecule, the TGI in assay [1], in assay [2], in [3], in [4], in assay [5] and in assay [6] was over 25 µM each time. The TGI in [7], in assay [8], in [9] and in assay [10] was over 25 µM each time.

As for `COC(=O)CCC(C)[C@H]1CCC2C3C(C[C@H](OC(C)=O)[C@@]21C)[C@@]1(C)CCC2(C[C@H]1C[C@H]3OC(C)=O)OOC1(CCC(C)CC1)OO2` (stereo not given in full), the TGI in [1] is over 100 µM; in assay [2], > 100 µM and 72 µM; in assay [3], over 100 µM; in assay [4], over 100 µM; in assay [5], over 100 µM; in [6], > 100 µM and 95.9 µM. Besides, the TGI in [7], in assay [8], in [9] and in assay [10] was over 100 µM throughout. Moreover, the GI50 is 8.64 µM and 26.2 µM in assay [3]; 4.68 µM and 31.4 µM in [4]; 9.1 µM and 27.6 µM in assay [6]; 7.74 µM and 15.6 µM in [8]; 3.78 µM and 26.8 µM in [10].

As for `COc1ccc(Cl)cc1Nc1nc(C(F)(F)F)ccc1C(=O)N/N=C/c1ccc([N+](=O)[O-])cc1`, the GI50 in assay [1] was 2.17 µM; in assay [2] it was 1.25 µM; in assay [3], 2.77 µM; in assay [4], 2.77 µM; in [5], 1.76 µM; in assay [6], 1.92 µM. Also, the GI50 in assay [7] is 1.29 µM; in assay [8], 2.05 µM; in assay [9], 3.05 µM; in assay [10], 2.95 µM. Moreover, the TGI is 6.77 µM in [1]; 3.78 µM in assay [2]; 62.2 µM in assay [3]; over 100 µM in assay [4]; 4.95 µM in [5]; 9.27 µM in assay [6]. Moreover, the TGI turned out to be 7.27 µM in [7], 7.52 µM in [8], 19.1 µM in [9] and 12.6 µM in assay [10].

Regarding `Cc1ccc(NC(=O)CC/C(CC(=O)C(C)(C)C)=N/NC(=O)C(N)=O)cc1C`, the TGI in assay [1], in assay [2], in assay [3], in assay [4], in assay [5] and in [6] was over 100 µM each time. Also, the TGI in assay [7], in [8], in assay [9] and in [10] was over 100 µM throughout.

On to `O=C(CC(=O)c1ccc([N+](=O)[O-])cc1)C(=O)Nc1nccs1`, for which the TGI in assay [1], in assay [2], in assay [3], in [4], in assay [5] and in assay [6] was over 100 µM each time. Also, the TGI in assay [7], in assay [8], in assay [9] and in [10] was over 100 µM throughout.

As for `Cc1c(C)c2c(c(C)c1NC(=O)/C=C\C(=O)O)CCC(C)(CCCC(C)CCCC(C)CCCC(C)C)O2` (stereo not given), the GI50 in [1] was 1.8 µM; in [2], 1.61 µM; in assay [3], 2.29 µM; in assay [4] it was 1.66 µM; in assay [5] it was 1.61 µM; in [6] it was 1.69 µM. Moreover, the GI50 was 1.91 µM in [7], 2.1 µM in assay [8], 1.68 µM in [9] and 2.3 µM in [10]. Moreover, the TGI came to 3.22 µM in assay [1]; 2.97 µM in assay [2]; 7.62 µM in assay [3]; 3.25 µM in [4]; 4.63 µM in [5]; 3.06 µM in assay [6]. Moreover, the TGI in assay [7] was determined as 3.64 µM; in [8] it was 4.52 µM; in assay [9], 3.11 µM; in assay [10] it was 7.16 µM.
